≈ marks a conversion by molar mass, not a printed value.
What was measured:
Test in all cases: MIC, microdilution broth method (NCCLS)
Type in all cases: cell-based
E. coli OC2605 = conditions: A: E. coli OC2605, 35° C., 16-20 hours
In short: (§1)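 Growth inhibition was scored visually against compound-free control wells in each tray. Setup: NCCLS broth microdilution, cation-adjusted Mueller-Hinton medium, two-fold dilution series, approx. 5×10^4 CFU/well, 16-20 h at 35° C.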

H. influenzae ATCC49247 = conditions: E: H. influenzae ATCC49247, 35° C., 16-20 hours
In short: as §1

E. faecalis ATCC29212 = conditions: C: E. faecalis ATCC29212, 35° C., 16-20 hours
In short: as §1

S. pneumoniae ATCC49619 = conditions: D: S. pneumoniae ATCC49619, 35° C., 16-20 hours
In short: as §1

S. aureus ATCC29213 = conditions: B: S. aureus ATCC29213, 35° C., 16-20 hours
In short: as §1

MIC (E. coli OC2605) [µg/mL] | MIC (H. influenzae ATCC49247) [µg/mL] | MIC (E. faecalis ATCC29212) [µg/mL] | MIC (S. pneumoniae ATCC49619) [µg/mL] | MIC (S. aureus ATCC29213) [µg/mL] | SMILES
>16 | >16 | 1 (≈ 1.12 µM) | 0.12 (≈ 0.134 µM) | 2 (≈ 2.24 µM) | CCC1OC(=O)C(C)C(=NOC)C(C)C(OC2OC(C)CC(N(C)C)C2O)C(C)(OC(=O)NCC=Cc2ccc(-c3ncccn3)cc2)CC(C)C(=NOC)C(C)C2NC(=O)OC12C (centres unmarked) [Compound 134]
>16 | >16 | 2 (≈ 2.31 µM) | 0.5 (≈ 0.579 µM) | 4 (≈ 4.63 µM) | CC[C@H]1OC(=O)[C@H](C)C(=O)[C@H](C)[C@@H](O[C@@H]2O[C@H](C)C[C@H](N(C)C)[C@H]2O)[C@](C)(OC(=O)NCC2CC(c3ccc(-c4ncccn4)cc3)C2)C[C@@H](C)C(=O)[C@H](C)[C@H]2NC(=O)O[C@@]21C (some centres unmarked) [Compound 135]
>16 | 8 (≈ 10.2 µM) | 1 (≈ 1.27 µM) | 0.25 (≈ 0.318 µM) | 4 (≈ 5.09 µM) | CC[C@H]1OC(=O)[C@H](C)C(=O)[C@H](C)[C@@H](O[C@@H]2O[C@H](C)C[C@H](N(C)C)[C@H]2O)[C@](C)(OC(=O)N2CCC(c3ccccc3)CC2)C[C@@H](C)C(=O)[C@H](C)[C@H]2NC(=O)O[C@@]21C [Compound 137]
>16 | 8 (≈ 10.8 µM) | 2 (≈ 2.69 µM) | 0.5 (≈ 0.672 µM) | 16 (≈ 21.5 µM) | CC[C@H]1OC(=O)[C@H](C)C(=O)[C@H](C)[C@@H](O[C@@H]2O[C@H](C)C[C@H](N(C)C)[C@H]2O)[C@](C)(OC(=O)N2Cc3ccccc3C2)C[C@@H](C)C(=O)[C@H](C)[C@H]2NC(=O)O[C@@]21C [Compound 138]
